Source: ChEMBL document CHEMBL1148604 (J Med Chem, 2006)
≈ marks a conversion by molar mass, not a printed value. Calls of active or inactive are those of the source. The calls are words filed in the database; no cut-off is given here.

Tests used:
[1] = biological target: T1, 3-oxoacyl-[acyl-carrier-protein] synthase 3 (Escherichia coli) (UniProt C3TDZ2); assay: Inhibitory activity against FabH from Escherichia coli ANSI at 100 uM
T1 sequence (whole entry): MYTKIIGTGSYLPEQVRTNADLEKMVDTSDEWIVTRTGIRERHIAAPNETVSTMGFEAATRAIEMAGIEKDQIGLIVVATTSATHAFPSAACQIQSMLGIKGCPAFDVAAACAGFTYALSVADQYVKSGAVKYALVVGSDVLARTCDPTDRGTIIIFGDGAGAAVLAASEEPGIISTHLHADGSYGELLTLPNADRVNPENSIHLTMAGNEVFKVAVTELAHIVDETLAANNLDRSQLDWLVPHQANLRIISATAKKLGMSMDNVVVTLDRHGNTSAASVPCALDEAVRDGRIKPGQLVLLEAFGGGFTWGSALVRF

[2] = tested on: Mycobacterium tuberculosis; assay: Inhibitory activity against Mycobacterium tuberculosis H37Rv; assay type: functional
Escherichia coli = assay: Inhibitory activity against Escherichia coli ANSI; assay type: functional
[3] = biological target: T2, Mycobacterial beta-ketoacyl-[acyl-carrier-protein] synthase III (Mycobacterium tuberculosis) (UniProt P9WNG3); assay: Inhibitory activity against FabH from Mycobacterium tuberculosis H37Rv at 100 uM
T2 sequence (whole entry): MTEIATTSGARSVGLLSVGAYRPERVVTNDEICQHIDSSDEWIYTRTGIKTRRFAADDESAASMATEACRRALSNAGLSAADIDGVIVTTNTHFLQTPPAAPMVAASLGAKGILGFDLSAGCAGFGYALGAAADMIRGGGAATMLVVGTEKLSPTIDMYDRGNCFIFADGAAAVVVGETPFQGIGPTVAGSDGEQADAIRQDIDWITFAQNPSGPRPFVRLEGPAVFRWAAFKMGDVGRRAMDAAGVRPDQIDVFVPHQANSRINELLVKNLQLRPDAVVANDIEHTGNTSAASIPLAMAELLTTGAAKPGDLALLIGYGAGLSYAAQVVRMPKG

[4] = biological target: T3, 3-oxoacyl-[acyl-carrier-protein] synthase 1 (Mycobacterium tuberculosis) (UniProt P9WQD9); assay: Inhibitory activity against KasA from Mycobacterium tuberculosis H37Rv at 100 uM
T3 sequence (whole entry): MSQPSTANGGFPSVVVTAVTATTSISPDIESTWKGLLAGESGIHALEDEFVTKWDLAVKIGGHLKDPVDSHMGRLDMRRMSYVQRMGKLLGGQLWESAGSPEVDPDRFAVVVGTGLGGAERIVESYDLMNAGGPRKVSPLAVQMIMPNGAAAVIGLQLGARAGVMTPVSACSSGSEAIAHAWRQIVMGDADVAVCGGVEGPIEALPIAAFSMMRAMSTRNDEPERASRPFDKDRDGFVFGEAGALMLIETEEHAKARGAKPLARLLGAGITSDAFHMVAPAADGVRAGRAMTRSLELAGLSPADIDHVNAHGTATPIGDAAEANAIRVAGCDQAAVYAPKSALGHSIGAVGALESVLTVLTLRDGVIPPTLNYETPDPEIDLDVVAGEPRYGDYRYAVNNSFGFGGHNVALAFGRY

[5] = biological target: T4, 3-oxoacyl-[acyl-carrier-protein] synthase 1 (Escherichia coli K-12) (UniProt P0A953); assay: Inhibitory activity against FabB from Escherichia coli ANSI at 100 uM
T4 sequence (whole entry): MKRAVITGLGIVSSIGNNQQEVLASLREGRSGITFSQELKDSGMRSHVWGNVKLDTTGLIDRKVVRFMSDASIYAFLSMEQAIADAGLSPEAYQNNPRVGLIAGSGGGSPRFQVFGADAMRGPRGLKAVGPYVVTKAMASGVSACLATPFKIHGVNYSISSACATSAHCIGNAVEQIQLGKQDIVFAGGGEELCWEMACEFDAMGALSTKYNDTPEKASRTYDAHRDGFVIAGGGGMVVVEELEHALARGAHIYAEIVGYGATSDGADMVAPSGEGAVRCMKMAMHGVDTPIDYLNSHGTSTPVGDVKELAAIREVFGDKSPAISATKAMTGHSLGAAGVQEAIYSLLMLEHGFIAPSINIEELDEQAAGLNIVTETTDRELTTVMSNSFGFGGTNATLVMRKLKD

[6] = biological target: T5, 3-oxoacyl-[acyl-carrier-protein] synthase 2 (Mycobacterium tuberculosis) (UniProt P9WQD7); assay: Inhibitory activity against KasB from Mycobacterium tuberculosis H37Rv at 100 uM
T5 sequence (whole entry): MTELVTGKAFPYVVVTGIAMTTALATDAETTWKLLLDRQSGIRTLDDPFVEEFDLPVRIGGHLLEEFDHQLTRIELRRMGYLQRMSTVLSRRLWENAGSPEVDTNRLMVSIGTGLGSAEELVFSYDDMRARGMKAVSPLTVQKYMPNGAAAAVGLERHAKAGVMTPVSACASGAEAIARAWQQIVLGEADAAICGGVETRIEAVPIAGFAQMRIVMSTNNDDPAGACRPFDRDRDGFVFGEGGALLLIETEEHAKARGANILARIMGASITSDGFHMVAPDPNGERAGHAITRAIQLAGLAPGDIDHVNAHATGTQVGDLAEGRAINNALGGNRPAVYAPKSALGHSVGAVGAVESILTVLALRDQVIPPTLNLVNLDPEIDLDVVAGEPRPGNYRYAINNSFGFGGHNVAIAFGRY

[7] = biological target: T6, Mycobacterial beta-ketoacyl-[acyl-carrier-protein] synthase III (Mycobacterium tuberculosis, UniProt P9WNG3); assay: Inhibitory activity against FabH from Mycobacterium tuberculosis H37Rv
T6 sequence (P9WNG3 whole entry): T2 sequence (whole entry)

[8] = biological target: T7, 3-oxoacyl-[acyl-carrier-protein] synthase 3 (Escherichia coli, UniProt C3TDZ2); assay: Inhibitory activity against FabH from Escherichia coli ANSI
T7 sequence (C3TDZ2 whole entry): T1 sequence (whole entry)

[9] = biological target: T8, 3-oxoacyl-[acyl-carrier-protein] synthase 1 (Escherichia coli K-12, UniProt P0A953); assay: Inhibitory activity against FabB from Escherichia coli ANSI
T8 sequence (P0A953 whole entry): T4 sequence (whole entry)

[10] = biological target: T9, 3-oxoacyl-[acyl-carrier-protein] synthase 2 (Mycobacterium tuberculosis, UniProt P9WQD7); assay: Inhibitory activity against KasB from Mycobacterium tuberculosis H37Rv
T9 sequence (P9WQD7 whole entry): T5 sequence (whole entry)

wild-type apo-KasA = wild-type apo-KasA (Mycobacterium tuberculosis, UniProt P9WQD9); assay: Inhibitory activity against KasA from Mycobacterium tuberculosis H37Rv

Row | Compound | inhibition [1] | MIC [2] | MIC (Escherichia coli) | inhibition [3] | inhibition [4] | inhibition [5] | inhibition [6] | IC50 [7] | IC50 [8] | IC50 [9] | IC50 [10] | IC50 (wild-type apo-KasA)
1 | CCCCCC1(C)SC(O)=C(C)C1=O (centres undefined) | inactive | 500 µM (≈ 107 µg/mL) | > 1000 µM | inactive | inactive | inactive | inactive | – | – | – | – | –
2 | CCCCCCC1(C)SC(O)=C(C)C1=O (centres undefined) | inactive | 1000 µM (≈ 228 µg/mL) | > 1000 µM | inactive | inactive | inactive | inactive | – | – | – | – | –
3 | CC1=C(O)C(C)(Cc2ccc(Cl)cc2Cl)SC1=O (centres undefined) | inactive | 500 µM (≈ 152 µg/mL) | 150 µM (≈ 45.5 µg/mL) | < 30% | inactive | inactive | inactive | > 100 µM | – | – | – | –
4 | CC1=C(O)C(C)(C2CCCC2)SC1=O (centres undefined) | inactive | > 1000 µM | > 1000 µM | inactive | inactive | inactive | inactive | – | – | – | – | –
5 | CC(C)=CCC/C(C)=C/CC1(C)SC(O)=C(C)C1=O (centres undefined) | – | > 1000 µM | > 1000 µM | inactive | inactive | inactive | inactive | – | 100 µM | – | – | –
6 | CC1=C(O)SC(C)C1=O (centres undefined) [THIOLACTONE] | inactive | > 1000 µM | > 1000 µM | inactive | inactive | inactive | inactive | – | – | – | – | –
7 | CCCCCCCCCCCCC1(C)SC(O)=C(C)C1=O (centres undefined) | – | 1000 µM (≈ 313 µg/mL) | 25 µM (≈ 7.81 µg/mL) | – | inactive | inactive | inactive | 50 µM | 100 µM | – | – | –
8 | CC1=C(O)SC(C)(CC(C)C)C1=O (centres undefined) | inactive | > 1000 µM | > 1000 µM | inactive | inactive | inactive | inactive | – | – | – | – | –
9 | CC1=C(O)SC(C)(C(C)C)C1=O (centres undefined) | inactive | > 1000 µM | > 1000 µM | inactive | inactive | inactive | inactive | – | – | – | – | –
10 | CCCCCCCCCCCCCC1(C)SC(O)=C(C)C1=O (centres undefined) | – | 500 µM (≈ 163 µg/mL) | > 200 µM | – | inactive | < 30% | inactive | 80 µM | 100 µM | > 100 µM | – | –
11 | C=C(C)CC1(C)SC(O)=C(C)C1=O (centres undefined) | inactive | > 1000 µM | > 1000 µM | inactive | inactive | inactive | inactive | – | – | – | – | –
12 | CC1=C(O)C(C)(Cc2ccccc2)SC1=O (centres undefined) | inactive | > 1000 µM | > 1000 µM | inactive | inactive | inactive | inactive | – | – | – | – | –
13 | CCC(C)C1(C)SC(O)=C(C)C1=O (centres undefined) | inactive | > 1000 µM | > 1000 µM | < 30% | inactive | inactive | inactive | > 100 µM | – | – | – | –
14 | CCCCCCCCCCC1(C)SC(O)=C(C)C1=O (centres undefined) | – | 500 µM (≈ 142 µg/mL) | 100 µM (≈ 28.4 µg/mL) | < 30% | inactive | inactive | inactive | > 100 µM | 100 µM | – | – | –
15 | CCC(CC)CC1(C)SC(O)=C(C)C1=O (centres undefined) | inactive | 1000 µM (≈ 228 µg/mL) | > 1000 µM | inactive | inactive | inactive | inactive | – | – | – | – | –
16 | C=CC(C)CC1(C)SC(O)=C(C)C1=O (centres undefined) | inactive | > 1000 µM | > 1000 µM | inactive | inactive | inactive | inactive | – | – | – | – | –
17 | CCCCCCCCCCCCCCC1(C)SC(O)=C(C)C1=O (centres undefined) | – | 1000 µM (≈ 341 µg/mL) | 200 µM (≈ 68.1 µg/mL) | – | inactive | < 30% | inactive | 80 µM | 100 µM | > 100 µM | – | –
18 | CC1=C(O)C(C)(Cc2ccc(C(F)(F)F)cc2)SC1=O (centres undefined) | inactive | 1000 µM (≈ 302 µg/mL) | > 1000 µM | < 30% | inactive | inactive | inactive | > 100 µM | – | – | – | –
19 | CC1=C(O)C(C)(C/C=C/c2ccccc2)SC1=O (centres undefined) | inactive | > 1000 µM | > 1000 µM | inactive | inactive | inactive | inactive | – | – | – | – | –
20 | C=CCC1(C)SC(=O)C(C)=C1O (centres undefined) | inactive | > 1000 µM | > 1000 µM | inactive | inactive | inactive | inactive | – | – | – | – | –
21 | C/C=C/CC1(C)SC(O)=C(C)C1=O (centres undefined) | inactive | > 1000 µM | > 1000 µM | inactive | inactive | inactive | inactive | – | – | – | – | –
22 | CC1=C(O)SC(C)(C(C)c2ccccc2)C1=O (centres undefined) | – | > 1000 µM | > 1000 µM | – | – | – | – | > 1000 µM | > 1000 µM | > 1000 µM | > 1000 µM | > 1000 µM
23 | CC1=C(O)C(C)(Cc2ccc3ccccc3c2)SC1=O (centres undefined) | – | 500 µM (≈ 142 µg/mL) | > 1000 µM | – | – | – | – | > 100 µM | > 1000 µM | > 1000 µM | > 1000 µM | > 1000 µM
24 | CC1=C(O)C(C)(Cc2ccc(Cl)cc2)SC1=O (centres undefined) | – | 1000 µM (≈ 269 µg/mL) | > 1000 µM | – | – | – | – | > 100 µM | > 1000 µM | > 1000 µM | > 1000 µM | > 1000 µM
